{
  "source": "a melting point compilation (Tetko et al.; mined from patent text by program, amines drawn as free bases though some values may be those of a salt)",
  "data": [
    {"units": {"melting point": "°C"}, "values": [
      {"smiles": "COc1ccccc1CN=C(Cc1ccccc1)N1CC2C(=O)CCC(c3ccccc3)(c3ccccc3)C2C1", "note": "(stereo not drawn)", "melting point": 146},
      {"smiles": "COC1=C(OC)C(=O)C(CCCCCCCCCC(=O)N[C@@H](CCSC)C(=O)O)=C(C)C1=O", "melting point": "83 to 85"},
      {"smiles": "CC(Cl)(Cl)C(NC(=O)c1ccc(Cl)cc1)NC(=NC#N)Nc1ccc(F)nc1", "note": "(stereo not drawn)", "melting point": "206 to 207"},
      {"smiles": "CC(=O)NS(=O)(=O)c1cc(C(=O)O)cc([N+](=O)[O-])c1Oc1ccccc1", "melting point": "270 to 271"},
      {"smiles": "COc1ccc2c(c1)c1c(n2C)C(=O)NCCO1", "melting point": "184 to 186"},
      {"smiles": "C=CCNc1ccc([N+](=O)[O-])cc1C(=O)c1ccccc1", "melting point": 97},
      {"smiles": "CNC(=O)c1cccc(NC(=O)COc2ccc3ccccc3c2)c1", "melting point": 174},
      {"smiles": "CNc1nc(-c2cccc(NC(=O)c3ccccc3OCc3ccccc3)c2)c2cc(OC)c(OC)cc2n1", "melting point": "192 to 194"},
      {"smiles": "CCCOc1nc2ccc(I)cc2c(=O)n1CCC", "melting point": "49 to 53"},
      {"smiles": "CC(C)(C)OC(=O)n1cc(C(=O)C2CSC(c3cccnc3)N2C(N)=O)c2ccccc21", "note": "(stereo not drawn)", "melting point": "141 to 143"},
      {"smiles": "CC(C)CNC(=O)c1cc([N+](=O)[O-])cc([N+](=O)[O-])c1", "melting point": "149 to 155"},
      {"smiles": "COC(=O)N1CC(Cc2ccc(OC)c(OC3CCCC3)c2)N(C(=O)OC)C1=O", "note": "(stereo not drawn)", "melting point": "138 to 140"},
      {"smiles": "Cc1cccc(CC(Nc2ccccc2)C(=O)NC(C#N)COCc2ccc(F)c(C(=O)O)c2)c1", "note": "(stereo not drawn)", "melting point": "107 to 108"},
      {"smiles": "Cn1nc(Nc2cc(Cl)n[nH]c2=O)cc1CN1CCC1", "melting point": "140 to 141"},
      {"smiles": "C=C(C)C(=O)NCC(=O)Nc1cc(Cl)c(C)c(Cl)c1O", "melting point": "217 to 218"},
      {"smiles": "CCOC(=O)c1cn(N)c2cc(-n3cccc3)c(F)cc2c1=O", "melting point": "276 to 279"},
      {"smiles": "CCCCOC(=O)NCc1nc(-c2ccc3c(c2)Nc2ccccc2S3)cs1", "melting point": "186 to 188"},
      {"smiles": "CSc1sc(-c2nc(C)no2)c2c1C(=O)CC(C)(C)C2", "melting point": "177 to 180"},
      {"smiles": "CC(=O)C1=C(O)C(=C(C)Nc2cc(NS(C)(=O)=O)cc(NS(C)(=O)=O)c2)C(=O)OC1=O", "melting point": 260},
      {"smiles": "NC(Cc1cc(Cl)c(Sc2ccc(O)c(Cc3ccc(=O)[nH]c3)c2)c(Cl)c1)C(=O)O", "note": "(stereo not drawn)", "melting point": "261 to 264"},
      {"smiles": "O=S1(=O)N=C(NCC2CC2)Nc2ccc(Cl)cc21", "melting point": "288 to 290"},
      {"smiles": "CC(=O)c1cccc(-c2cncc(OC3SCC(O)C(O)C3O)c2)c1", "note": "(stereo not drawn)", "melting point": "159 to 163"},
      {"smiles": "Nc1cccc(S(=O)(=O)NCc2cccnc2)c1", "melting point": 129},
      {"smiles": "COCCOc1cnn(-c2nc3ccccc3c(=O)[nH]2)c1", "melting point": "119 to 124"},
      {"smiles": "COc1ccc(Cl)cc1C(=O)NC1COc2cc(C)ccc2C1=O", "note": "(stereo not drawn)", "melting point": "177 to 178"},
      {"smiles": "Cc1ccc(S(=O)(=O)Oc2ccc(S(=O)(=O)C3=Cc4ccccc4C3)cc2)cc1", "melting point": 174},
      {"smiles": "Cc1cc(-c2ccccc2)n2nc(S(C)(=O)=O)nc2n1", "melting point": "158 to 159"},
      {"smiles": "CC(C)[C@H](NC(=O)OCc1ccccn1)C(=O)N[C@@H](Cc1ccccc1)[C@@H](O)C[C@H](Cc1ccccc1)NC(=O)OCc1cncs1", "melting point": "176 to 177"},
      {"smiles": "O=C1CCCN1c1cccc(Cc2n[nH]c(=O)c3ccccc23)c1", "melting point": "206 to 207"},
      {"smiles": "Fc1ccc(NC(=S)c2ccccn2)cc1", "melting point": "82 to 85"},
      {"smiles": "CC(C)(C)OC(=O)n1cccc1-c1ccc2c(c1)C(C)(C)OC(=O)N2", "melting point": "172 to 173"},
      {"smiles": "CC(=O)SCCC(=O)N1c2ccccc2C(C)(C)C1C(N)=O", "note": "(stereo not drawn)", "melting point": "156 to 158"},
      {"smiles": "Cc1nc2c(c(N3CCN(CCO)CC3)n1)OC(C)C(=O)N2", "note": "(stereo not drawn)", "melting point": "160 to 161"},
      {"smiles": "O=S1(=O)NCN(C2CC2)c2cc(Br)cc(Br)c21", "melting point": "203 to 205"},
      {"smiles": "N#CCCSCc1nccc(NC(=S)NCC(F)(F)F)n1", "melting point": "108 to 110"},
      {"smiles": "O=C1CCCN1CC1CCN(c2ccnc(C(F)(F)F)n2)CC1", "melting point": "118 to 120"},
      {"smiles": "Fc1ccc(F)c(CN2CCNc3ncc(-c4cn[nH]c4)cc32)c1Cl", "melting point": 272},
      {"smiles": "CC(=O)OCC(=O)Nc1ccc(-c2nc(C(=O)Nc3nccs3)c(-c3ccc(C)cc3)[nH]2)cc1", "melting point": "> 250"},
      {"smiles": "CC1(C)OC(=O)C(=Cc2ccc(Br)s2)C1=O", "melting point": "173 to 175"},
      {"smiles": "Cn1cc(-c2cc3cccnc3[nH]2)c2cc(OCCO)ccc21", "melting point": "209 to 210"},
      {"smiles": "CCCCOC(=O)c1ccc(NC2=NC3=NC(Nc4ccc(C(=O)OCCCC)cc4)=NC4=NC(Nc5ccc(C(=O)OCCCC)cc5)=NC(=N2)N34)cc1", "melting point": "289 to 290"},
      {"smiles": "O=C(NCCCCCCCNC(=O)c1ccc(OC(F)(F)F)cc1)c1ccc(OC(F)(F)F)cc1", "melting point": "150 to 151"},
      {"smiles": "Cc1cc(C)nc(N(C(=O)C(Cl)(Cl)Cl)c2ccccc2)n1", "melting point": "126 to 127"},
      {"smiles": "O=C(NNc1ccccc1)c1ccc(F)cc1", "melting point": "181 to 186"},
      {"smiles": "COC(=O)Cn1c(-c2ccccc2Cl)nc2cccnc21", "melting point": "198 to 200"},
      {"smiles": "COc1ccc(Cn2cc([N+](=O)[O-])c(C(N)=O)n2)cc1", "melting point": "192 to 193"},
      {"smiles": "Cc1oc2c(C)cc(C3CC(=O)OC(=O)C3)cc2c1C", "melting point": 170},
      {"smiles": "CNC(=O)Cc1ccc(O)cc1", "melting point": "124 to 125"}
    ]}
  ]
}
